In PubChem BioAssay (NCI) one finds TGI and GI50 data, which are given here for 12 compounds.

Values joined by “and” are separate entries in the source; they are usually repeats but may differ in a detail not shown here. Equal entries are not always repeated.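 Compound exposure: 48 hours, 5 concentrations, 96-well plates. Abbreviation: GI50, concentration required for 50% inhibition of growth. TGI marks complete inhibition of growth.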

Some test systems named below: 786-0 renal; HT29 colon; OVCAR-4 ovarian; SK-OV-3 ovarian; UO-31 renal; HCC-2998 colon; OVCAR-5 ovarian; SK-MEL-5 melanoma; NCI-H23 lung; MDA-MB-435.
Common to all, as to experiment: inhibition of tumour cell growth, NCI panel, 48 h

`O=C(Nc1ccc([N+](=O)[O-])cc1C(=O)O)c1ccc([N+](=O)[O-])cc1`: the TGI in the test with 786-0 renal, in the test with HT29 colon, in the test with OVCAR-4 ovarian, in the test on SK-OV-3 ovarian, in the test with UO-31 renal and with HCC-2998 colon was more than 100 µM throughout. In addition, the TGI in the test with OVCAR-5 ovarian and in the test with SK-MEL-5 melanoma was more than 100 µM throughout.

For `CCC[CH2][Sn]1([CH2]CCC)[O]C(=O)c2cccc(OC)c2[O]1`, the GI50 is 0.554 µM in the test on 786-0 renal; 0.265 µM in the test on NCI-H23 lung; 0.798 µM with HT29 colon; 1.05 µM in the test on OVCAR-4 ovarian; 1.39 µM in the test with SK-OV-3 ovarian; 0.806 µM with UO-31 renal. The GI50 is 0.99 µM with HCC-2998 colon, 1.55 µM with OVCAR-5 ovarian and 0.722 µM in the test with SK-MEL-5 melanoma. Also, the TGI in the test on 786-0 renal came out at 1.91 µM; with NCI-H23 lung, 1.25 µM; in the test on HT29 colon it was 2.09 µM; with OVCAR-4 ovarian it was 2.25 µM; with SK-OV-3 ovarian, 2.71 µM; with UO-31 renal, 2.07 µM. In addition, the TGI with HCC-2998 colon was 2.15 µM; in the test with OVCAR-5 ovarian, 2.9 µM; in the test on SK-MEL-5 melanoma it was 2.11 µM.

For the compound `COCOCc1cc(OCc2ccccc2)c(OC)cc1Br`, the TGI in the test on 786-0 renal, with NCI-H23 lung, with HT29 colon, in the test with OVCAR-4 ovarian, in the test on OVCAR-5 ovarian and with SK-MEL-5 melanoma was more than 100 µM each time.

In the case of `CCCC(=O)Nc1cc([N+](=O)[O-])c([N+](=O)[O-])cc1OC`, the TGI in the test on 786-0 renal was more than 100 µM; with NCI-H23 lung, 34.4 µM; with MDA-MB-435 it was 33.3 µM; in the test with HT29 colon, 29.3 µM; with OVCAR-4 ovarian, 33.6 µM; with SK-OV-3 ovarian it was 26.8 µM. Besides, the figures for the TGI in the test with UO-31 renal, with OVCAR-5 ovarian and in the test with SK-MEL-5 melanoma were 3.13 µM, more than 100 µM and 30.2 µM, respectively.

For the compound `N#Cc1c(NC(=O)c2cccc3ccccc23)sc2c1CCCC2`, the GI50 is 0.101 µM in the test with 786-0 renal; 0.0874 µM with NCI-H23 lung; 0.00636 µM in the test on MDA-MB-435; 0.0716 µM with HT29 colon; 0.19 µM in the test on OVCAR-4 ovarian; 0.0751 µM in the test with HCC-2998 colon. Besides, the values for the GI50 in the test on OVCAR-5 ovarian and with SK-MEL-5 melanoma were 0.139 µM and 0.0844 µM, respectively. The TGI was more than 25 µM in the test with 786-0 renal; more than 25 µM with NCI-H23 lung; 0.0193 µM with MDA-MB-435; 0.224 µM in the test on HT29 colon; more than 25 µM in the test on OVCAR-4 ovarian; more than 7.9 µM in the test with HCC-2998 colon. Moreover, the TGI in the test with OVCAR-5 ovarian is more than 25 µM; in the test on SK-MEL-5 melanoma it was 1.62 µM.

With `O=C(CC/C(CC(=O)c1ccc(Cl)cc1)=N/O)Nc1ccc(Cl)c(Cl)c1`, the TGI in the test with 786-0 renal, in the test with NCI-H23 lung, in the test with HT29 colon, in the test on OVCAR-4 ovarian, in the test on SK-OV-3 ovarian and in the test with UO-31 renal was more than 100 µM each time. Further, the TGI in the test on OVCAR-5 ovarian and in the test on SK-MEL-5 melanoma was more than 100 µM each time.

Regarding `COC(=O)c1oc2c(O)c(OC)c(Br)cc2c1C`, the GI50 with 786-0 renal is 18.2 µM; with MDA-MB-435 it was 29 µM; with HT29 colon it was 15.7 µM; with UO-31 renal it was 46.9 µM; in the test on SK-MEL-5 melanoma, 22.2 µM. The TGI in the test with 786-0 renal is 32.4 µM; with MDA-MB-435, 65.4 µM; with HT29 colon, 30.4 µM; with UO-31 renal, more than 100 µM; in the test with SK-MEL-5 melanoma, 43.5 µM.

Regarding `COc1ccc(NC(=O)COC(=O)c2cccc3c(=O)c4ccccc4[nH]c23)cc1`, the TGI in the test with 786-0 renal turned out to be 53.1 µM; in the test on NCI-H23 lung it was 32 µM; in the test on HT29 colon, 29.5 µM; in the test on OVCAR-4 ovarian, 38.4 µM; with SK-OV-3 ovarian, 67.4 µM; in the test on UO-31 renal, 36.4 µM. Also, the TGI with HCC-2998 colon is more than 100 µM; with SK-MEL-5 melanoma, 30.1 µM.

Turning to `COc1ccc(N(C)c2nc(Cl)nc3ccn(C)c23)cc1`, the GI50 was less than 0.01 µM with 786-0 renal; less than 0.01 µM in the test with NCI-H23 lung; less than 0.01 µM with HT29 colon; less than 0.01 µM in the test on OVCAR-4 ovarian; less than 0.01 µM in the test on SK-OV-3 ovarian; 0.139 µM in the test on UO-31 renal. Besides, the results for the GI50 with HCC-2998 colon, with OVCAR-5 ovarian and in the test on SK-MEL-5 melanoma were less than 0.01 µM, 7.54 µM and less than 0.01 µM, respectively. For the same compound, the TGI in the test on 786-0 renal was more than 100 µM; with NCI-H23 lung, more than 100 µM; with HT29 colon it was 0.12 µM; in the test on OVCAR-4 ovarian it was more than 100 µM; in the test on SK-OV-3 ovarian, more than 100 µM; with UO-31 renal it was more than 100 µM. The TGI was more than 100 µM in the test with HCC-2998 colon, more than 100 µM in the test on OVCAR-5 ovarian and less than 0.01 µM with SK-MEL-5 melanoma.

Take `CCOP(=O)(OCC)/C(C#N)=C/c1ccc[nH]1`: the TGI in the test with 786-0 renal, in the test on NCI-H23 lung, in the test on HT29 colon, in the test with OVCAR-4 ovarian, in the test on SK-OV-3 ovarian and in the test on UO-31 renal was more than 100 µM each time. The TGI in the test with OVCAR-5 ovarian and with SK-MEL-5 melanoma was more than 100 µM in each case.

With `COc1ccc2cc3[n+](cc2c1OC)CCc1cc2c(cc1-3)OCO2`, the GI50 is 72.7 µM with 786-0 renal; 6.34 µM with NCI-H23 lung; 7.35 µM in the test on MDA-MB-435; 23.7 µM in the test with HT29 colon; 38 µM in the test with SK-OV-3 ovarian; 1.26 µM with SK-MEL-5 melanoma. The TGI is more than 100 µM in the test on 786-0 renal; 25.8 µM and 27 µM and 40.5 µM with MDA-MB-435; > 100 µM and > 92.7 µM and 87.6 µM with HT29 colon; 93.7 µM and > 100 µM and 62 µM in the test with OVCAR-4 ovarian; > 100 µM and 194 µM in the test on SK-OV-3 ovarian; > 100 µM and 149 µM with OVCAR-5 ovarian.

With `C=CCC12CC(=O)C=C1CCC1(C2)OCCO1` (configuration not stated), the TGI with 786-0 renal, with OVCAR-4 ovarian, in the test with SK-OV-3 ovarian, with UO-31 renal, in the test on HCC-2998 colon and with SK-MEL-5 melanoma was more than 100 µM in each case.
